Experimental data as given in ChEMBL document CHEMBL4480435, “The impact of binding site waters on the activity/selectivity trade-off of Janus kinase 2 (JAK2) inhibitors” (Bioorg Med Chem, 2019).

Experiments:
[1] = biological target: T1, Tyrosine-protein kinase JAK2 (Homo sapiens, UniProt O60674)
Description: Inhibition of human recombinant JAK2 (808 to 1132 residues) by Z-Lyte assay

[2] = biological target: T2, Tyrosine-protein kinase JAK1 (Homo sapiens, UniProt P23458)
Description: Inhibition of human recombinant JAK1 (852 to 1142 residues) by Z-Lyte assay

[3] = biological target: T2, Tyrosine-protein kinase JAK1; experiment: Inhibition of JAK1 (unknown origin) after 1 hr by FRET-based Z'-Lyte assay
[4] = biological target: T1, Tyrosine-protein kinase JAK2; experiment: Inhibition of JAK2 (unknown origin) after 1 hr FRET-based Z'-Lyte assay
Homo sapiens = organism: Homo sapiens; experiment: Selectivity ratio of IC50 for JAK1 (unknown origin) to IC50 for JAK2 (unknown origin)
[5] = biological target: T2, Tyrosine-protein kinase JAK1; experiment: Inhibition of JAK1 (unknown origin) at 10 uM after 1 hr by FRET-based Z'-Lyte assay
[6] = biological target: T2, Tyrosine-protein kinase JAK1; experiment: Inhibition of JAK1 (unknown origin) at 20 uM after 1 hr by FRET-based Z'-Lyte assay

T1 sequence (O60674 whole entry): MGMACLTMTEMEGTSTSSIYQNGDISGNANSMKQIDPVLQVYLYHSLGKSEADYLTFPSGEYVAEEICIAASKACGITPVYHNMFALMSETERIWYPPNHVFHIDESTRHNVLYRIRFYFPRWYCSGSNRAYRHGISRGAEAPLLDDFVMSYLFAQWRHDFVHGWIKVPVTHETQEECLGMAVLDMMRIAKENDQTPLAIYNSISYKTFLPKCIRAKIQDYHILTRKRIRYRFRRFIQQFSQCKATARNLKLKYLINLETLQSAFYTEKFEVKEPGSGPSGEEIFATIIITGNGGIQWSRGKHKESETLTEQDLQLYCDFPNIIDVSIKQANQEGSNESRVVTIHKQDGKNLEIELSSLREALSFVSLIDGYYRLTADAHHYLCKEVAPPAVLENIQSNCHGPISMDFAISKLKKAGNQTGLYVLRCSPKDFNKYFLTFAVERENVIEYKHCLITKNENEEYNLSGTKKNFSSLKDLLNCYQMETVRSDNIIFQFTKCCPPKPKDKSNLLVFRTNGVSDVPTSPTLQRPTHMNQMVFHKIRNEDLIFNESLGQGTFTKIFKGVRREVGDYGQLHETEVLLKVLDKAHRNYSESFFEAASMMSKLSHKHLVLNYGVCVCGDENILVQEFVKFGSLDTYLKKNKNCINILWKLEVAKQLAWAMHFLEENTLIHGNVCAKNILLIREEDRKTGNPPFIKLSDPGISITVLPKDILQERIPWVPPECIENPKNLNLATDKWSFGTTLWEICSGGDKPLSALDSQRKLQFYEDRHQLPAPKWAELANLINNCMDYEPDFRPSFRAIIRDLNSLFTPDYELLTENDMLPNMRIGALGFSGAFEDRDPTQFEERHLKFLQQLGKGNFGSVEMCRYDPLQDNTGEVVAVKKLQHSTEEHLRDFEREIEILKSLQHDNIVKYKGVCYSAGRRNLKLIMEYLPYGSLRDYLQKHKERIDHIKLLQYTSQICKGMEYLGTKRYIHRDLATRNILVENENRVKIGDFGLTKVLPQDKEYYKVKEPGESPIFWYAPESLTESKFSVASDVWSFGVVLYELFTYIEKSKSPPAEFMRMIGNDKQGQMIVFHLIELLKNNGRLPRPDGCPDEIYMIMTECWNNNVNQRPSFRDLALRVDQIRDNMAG
T2 sequence (P23458 whole entry): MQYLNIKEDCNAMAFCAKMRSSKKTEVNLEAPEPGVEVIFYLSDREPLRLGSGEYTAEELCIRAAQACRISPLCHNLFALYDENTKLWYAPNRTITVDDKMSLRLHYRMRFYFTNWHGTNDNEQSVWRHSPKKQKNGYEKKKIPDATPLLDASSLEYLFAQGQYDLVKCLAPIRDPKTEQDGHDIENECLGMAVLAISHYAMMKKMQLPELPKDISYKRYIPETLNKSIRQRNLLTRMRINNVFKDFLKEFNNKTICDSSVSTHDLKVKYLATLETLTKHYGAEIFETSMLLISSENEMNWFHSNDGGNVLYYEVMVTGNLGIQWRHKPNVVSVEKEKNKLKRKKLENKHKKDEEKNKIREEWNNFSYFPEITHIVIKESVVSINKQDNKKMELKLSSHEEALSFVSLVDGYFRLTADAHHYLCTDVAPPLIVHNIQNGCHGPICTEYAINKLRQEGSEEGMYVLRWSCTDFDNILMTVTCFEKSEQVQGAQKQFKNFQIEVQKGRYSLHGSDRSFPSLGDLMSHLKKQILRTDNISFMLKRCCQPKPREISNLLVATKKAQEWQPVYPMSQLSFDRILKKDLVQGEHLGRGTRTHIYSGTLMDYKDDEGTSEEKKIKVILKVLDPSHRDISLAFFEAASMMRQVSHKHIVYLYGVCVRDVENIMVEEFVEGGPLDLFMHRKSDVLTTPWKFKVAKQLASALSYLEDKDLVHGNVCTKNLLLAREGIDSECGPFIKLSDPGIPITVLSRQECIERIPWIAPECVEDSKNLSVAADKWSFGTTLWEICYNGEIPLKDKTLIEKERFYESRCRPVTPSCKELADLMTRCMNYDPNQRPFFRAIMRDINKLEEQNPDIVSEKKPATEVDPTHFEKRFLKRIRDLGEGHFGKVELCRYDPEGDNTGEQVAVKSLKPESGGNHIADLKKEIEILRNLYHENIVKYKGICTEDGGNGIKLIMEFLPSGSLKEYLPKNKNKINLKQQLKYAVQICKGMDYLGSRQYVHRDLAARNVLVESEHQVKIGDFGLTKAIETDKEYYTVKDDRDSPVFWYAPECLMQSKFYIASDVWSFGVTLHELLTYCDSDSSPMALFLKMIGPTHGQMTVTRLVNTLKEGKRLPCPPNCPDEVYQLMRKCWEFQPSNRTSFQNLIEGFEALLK

| Compound | IC50 [1] [nM] | IC50 [2] [nM] | IC50 [3] [µM] | IC50 [4] [nM] | Ratio IC50 (Homo sapiens) | inhibition [5] [%] | inhibition [6] [%] |
| --- | --- | --- | --- | --- | --- | --- | --- |
| CNS(=O)(=O)C[C@H]1CC[C@H](N(C)c2ncnc3[nH]ccc23)CC1 [OCLACITINIB] | 18 | 10 | – | – | – | – | – |
| O=C(Nc1ccc2[nH]ncc2c1)c1ccccc1-n1cnnn1 | – | – | 33 | 2380 | 14 | – | – |
| Nc1n[nH]c2ccc(NC(=O)c3c(Cl)cccc3-n3cnnn3)cc12 | – | – | – | 76600 | – | 10 | – |
| c1ccc(-n2cnnn2)c(-c2cn(-c3ccc4[nH]ncc4c3)nn2)c1 | – | – | 8.8 | 9530 | 0.9 | – | – |
| O=C(Nc1ccc2[nH]ncc2c1)c1cccc(Cn2cnnn2)c1 | – | – | – | – | – | – | 20 |
| O=C(Nc1ccc2[nH]ncc2c1)c1ccccc1 | – | – | – | – | – | – | 17 |
| O=C(Nc1ccc2[nH]ncc2c1)c1ccccc1Cn1cnnn1 | – | – | 9.67 | 3540 | 2.7 | – | – |
| Nc1n[nH]c2ccc(C(=O)Nc3ccccc3)cc12 | – | – | 10.8 | 3230 | 3.78 | – | – |
| Nc1n[nH]c2ccc(-c3cnc(-c4ccccc4-n4cnnn4)s3)cc12 | – | – | 9.29 | 3250 | 2.85 | – | – |
| Nc1n[nH]c2ccc(NC(=O)c3ccccc3-n3cnnn3)cc12 | – | – | 33.9 | 6340 | 5.3 | – | – |
| CCNc1ccccc1C(=O)Nc1ccc2[nH]ncc2c1 | – | – | 24.1 | 3960 | 6 | – | – |
| Nc1n[nH]c2ccc(NC(=O)c3ccccc3)cc12 | – | – | 10.5 | 2780 | 3.78 | – | – |

More lines, in order of falling IC50 [4], values ahead:

| IC50 [1] [nM] | IC50 [2] [nM] | IC50 [3] [µM] | IC50 [4] [nM] | Ratio IC50 (Homo sapiens) | inhibition [5] [%] | inhibition [6] [%] | Compound |
| --- | --- | --- | --- | --- | --- | --- | --- |
| – | – | 3.3 | 2000 | 1.65 | – | – | c1ccc(-n2cnnn2)c(-c2cc(-c3ccc4[nH]ncc4c3)on2)c1 |
| – | – | 22 | 1970 | 11 | – | – | CCNc1ccccc1C(=O)Nc1ccc2[nH]nc(N)c2c1 |
| – | – | 21.6 | 1680 | 12.8 | – | – | Clc1cccc(-n2cnnn2)c1-c1nc(-c2ccc3[nH]ncc3c2)cs1 |
| – | – | 7.94 | 1540 | 5 | – | – | c1ccc(-n2cnnn2)c(-c2nc(-c3ccc4[nH]ncc4c3)cs2)c1 |
| – | – | 11.5 | 820 | 14 | – | – | O=C(Nc1ccc2[nH]ncc2c1)c1c(Cl)cccc1-n1cnnn1 |
| – | – | 0.764 | 718 | 1 | – | – | O=C(Nc1ccc2[nH]ncc2c1)c1cccc(-n2cnnn2)c1 |
| – | – | 0.943 | 583 | 1.63 | – | – | Nc1n[nH]c2ccc(NC(=O)c3cccc(Cl)c3)cc12 |
| – | – | 8.53 | 453 | 18.8 | – | – | O=C(Nc1ccc2[nH]ncc2c1)c1ccccc1Cl |
| – | – | 1.51 | 411 | 3.67 | – | – | Nc1n[nH]c2ccc(NC(=O)c3cccc(Cl)c3Cl)cc12 |
| – | – | 2.27 | 126 | 18 | – | – | Nc1n[nH]c2ccc(C(=O)Nc3ccccc3Cl)cc12 |
| – | – | 1.82 | 101 | 18 | – | – | Nc1n[nH]c2ccc(NC(=O)c3ccccc3Cl)cc12 |
| – | – | 0.414 | 38 | 11 | – | – | Nc1n[nH]c2ccc(C(=O)Nc3cc(Cl)ccc3Cl)cc12 |
| – | – | 0.46 | 28 | 16 | – | – | Nc1n[nH]c2ccc(C(=O)Nc3c(Cl)cccc3Cl)cc12 |
| – | – | 0.151 | 23 | 6.57 | – | – | Nc1n[nH]c2ccc(NC(=O)c3cc(Cl)ccc3Cl)cc12 |
